Experimental data reported in ChEMBL document CHEMBL5614417, “Discovery of AMPs from random peptides via deep learning-based model and biological activity validation” (Eur J Med Chem, 2024).
Values after ≈ are worked out from the molar mass of the structure shown. Active and inactive are the calls of the source. The calls are words filed in the database; no cut-off is given here. Where a SMILES comes first, the peptide text is derived from it.

Tests used:
[1] = tested on: Escherichia coli; assay: Antibacterial activity against ESBL Escherichia coli 4 incubated for 18 hrs by visual inspection method; type: functional
[2] = tested on: Cell membrane; assay: Induction of inner membrane permeability in Escherichia coli ML-35 at 1 to 4 times MIC by ONPG dye based assay; type: cell membranes; settings: TDE = time-dependent effect
[3] = tested on: Staphylococcus aureus; assay: Antibacterial activity against Staphylococcus aureus ATCC 25923 incubated for 18 hrs by visual inspection method; type: functional
[4] = tested on: Cell membrane; assay: Induction of cell membrane damage in Escherichia coli assessed as change in morphology by measuring deformed membrane at 4 times MIC incubated for 5 hrs by SEM analysis; type: cell membranes
[5] = tested on: Staphylococcus aureus; assay: Inhibition of biofilm formation in Staphylococcus aureus at 2 times MIC incubated for 24 hrs by crystal violet staining based assay; type: functional
[6] = tested on: Cell membrane; assay: Induction of cell membrane damage in Staphylococcus aureus assessed as change in morphology by measuring numerous blebs covered membrane at 4 times MIC incubated for 5 hrs by SEM analysis; type: cell membranes
[7] = tested on: Acinetobacter baumannii; assay: Antibacterial activity against multidrug resistant Acinetobacter baumannii 3 incubated for 18 hrs by visual inspection method; type: functional
[8] = tested on: Staphylococcus epidermidis; assay: Antibacterial activity against Staphylococcus epidermidis ATCC 12228 incubated for 18 hrs by visual inspection method; type: functional
[9] = tested on: Bacillus subtilis; assay: Antibacterial activity against Bacillus subtilis ATCC 23857 incubated for 18 hrs by visual inspection method; type: functional
[10] = tested on: Acinetobacter baumannii; assay: Antibacterial activity against multidrug resistant Acinetobacter baumannii 4 incubated for 18 hrs by visual inspection method; type: functional
[11] = Toxicity in BALB/c mouse assessed as heart damage at 400 mg/kg, ip measured after 48 hrs by H and E staining based assay; type: organism-based; settings: in vivo
[12] = tested on: Erythrocyte; assay: Hemolytic activity in rat erythrocytes incubated for 1 hr; type: toxicity, cell-based
[13] = tested on: Staphylococcus aureus; assay: Antibacterial activity against Staphylococcus aureus ATCC 25923 incubated for 18 hrs in presence of 150 mM NaCl by visual inspection method; type: functional
[14] = tested on: Escherichia coli; assay: Antibacterial activity against ESBL Escherichia coli 1 incubated for 18 hrs by visual inspection method; type: functional
[15] = tested on: Staphylococcus aureus; assay: Bactericidal activity against Staphylococcus aureus at 2 times MIC measured after 6 hrs by time kill kinetic assay; type: functional, organism-based
[16] = Toxicity in BALB/c mouse assessed as edema in hepatocytes at 200 to 400 mg/kg, ip measured after 48 hrs by H and E staining based assay; type: organism-based; settings: in vivo, dose 200-400 mg/kg
[17] = tested on: Escherichia coli; assay: Bactericidal activity against Escherichia coli at 2 times MIC measured after 3 hrs by time kill kinetic assay; type: functional, organism-based
[18] = tested on: Erythrocyte; assay: Hemolytic activity in rat erythrocytes at 250 ug/ml incubated for 1 hr; type: toxicity, cell-based; settings: dose 250 µg/ml
[19] = tested on: Staphylococcus aureus; assay: Antibacterial activity against Staphylococcus aureus ATCC 25923 incubated for 18 hrs in presence of 50 mM NaCl by visual inspection method; type: functional
[20] = Toxicity in BALB/c mouse assessed as kidney damage at 400 mg/kg, ip measured after 48 hrs by H and E staining based assay; type: organism-based; settings: in vivo
[21] = tested on: Cell membrane; assay: Induction of cell membrane damage in Escherichia coli assessed as change in morphology by measuring numerous blebs covered membrane at 4 times MIC incubated for 5 hrs by SEM analysis; type: cell membranes
[22] = tested on: Staphylococcus aureus; assay: Antibacterial activity against Staphylococcus aureus ATCC 25923 incubated for 18 hrs in presence of 100 mM NaCl by visual inspection method; type: functional
[23] = tested on: Escherichia coli; assay: Antibacterial activity against Escherichia coli ATCC 25922 incubated for 18 hrs in presence of 50 mM NaCl by visual inspection method; type: functional
[24] = tested on: Cell membrane; assay: Induction of cell membrane damage in Staphylococcus aureus assessed as decrease in red/green fluorescence ratio at 2 times MIC by DiOC2(3) fluorescent probe based assay; type: cell membranes
[25] = tested on: Acinetobacter baumannii; assay: Antibacterial activity against Acinetobacter baumannii ATCC 19606 incubated for 18 hrs by visual inspection method; type: functional
[26] = tested on: Staphylococcus aureus; assay: Antibacterial activity against Staphylococcus aureus infected in BALB/c mouse at 10 to 20 mg/kg administered every 4 hrs for 3 doses and measured after 4 hrs post last dose; type: functional, organism-based; settings: dose 10-20 mg/kg, time 16.0 hrs
[27] = tested on: Cell membrane; assay: Induction of cell membrane damage in Escherichia coli assessed as change in morphology by measuring roughened membrane at 4 times MIC incubated for 5 hrs by SEM analysis; type: cell membranes
[28] = tested on: Escherichia coli; assay: Antibacterial activity against Escherichia coli ATCC 25922 incubated for 18 hrs by visual inspection method; type: functional
[29] = tested on: Escherichia coli; assay: Antibacterial activity against Escherichia coli ATCC 25922 incubated for 18 hrs in presence of 150 mM NaCl by visual inspection method; type: functional
[30] = tested on: Escherichia coli; assay: Antibacterial activity against ESBL Escherichia coli 3 incubated for 18 hrs by visual inspection method; type: functional
[31] = tested on: Staphylococcus aureus; assay: Inhibition of biofilm formation in Staphylococcus aureus at MIC incubated for 24 hrs by crystal violet staining based assay; type: functional
[32] = Stability in Sprague-Dawley rat serum assessed as retention rate at 62.5 ug/ml measured after 2 hrs by RP-HPLC method; type: ADME, cell-free; settings: at 62.5 µg/mL, read-out: Stability
[33] = tested on: Cell membrane; assay: Induction of cell membrane damage in Staphylococcus aureus assessed as change in morphology by measuring deformed membrane at 4 times MIC incubated for 5 hrs by SEM analysis; type: cell membranes
[34] = tested on: Cell membrane; assay: Induction of cell membrane damage in Staphylococcus aureus assessed as change in morphology by measuring roughened membrane at 4 times MIC incubated for 5 hrs by SEM analysis; type: cell membranes
[35] = tested on: Staphylococcus aureus; assay: Antibacterial activity against methicillin resistant Staphylococcus aureus 2 incubated for 18 hrs by visual inspection method; type: functional
[36] = tested on: Staphylococcus aureus; assay: Inhibition of biofilm formation in Staphylococcus aureus at 8 times MIC incubated for 24 hrs by crystal violet staining based assay; type: functional
[37] = tested on: Escherichia coli; assay: Bactericidal activity against Escherichia coli at 4 times MIC measured after 2 hrs by time kill kinetic assay; type: functional
[38] = tested on: Staphylococcus aureus; assay: Antibacterial activity against methicillin resistant Staphylococcus aureus 4 incubated for 18 hrs by visual inspection method; type: functional
[39] = tested on: Cell membrane; assay: Disruption of outer membrane integrity in Escherichia coli assessed as increase in fluorescence intensity by measuring NPN uptake measured every min for 15 mins by fluorescence based analysis; type: cell membranes
[40] = tested on: Acinetobacter baumannii; assay: Antibacterial activity against multidrug resistant Acinetobacter baumannii 5 incubated for 18 hrs by visual inspection method; type: functional
[41] = tested on: Staphylococcus aureus; assay: Bactericidal activity against Staphylococcus aureus at 4 times MIC measured after 2 hrs by time kill kinetic assay; type: functional
[42] = tested on: Cell membrane; assay: Induction of cell membrane damage in Staphylococcus aureus assessed as decrease in red/green fluorescence ratio by DiOC2(3) fluorescent probe based assay; type: cell membranes
[43] = tested on: Staphylococcus aureus; assay: Inhibition of biofilm formation in Staphylococcus aureus at 4 times MIC incubated for 24 hrs by crystal violet staining based assay; type: functional
[44] = tested on: Escherichia coli; assay: Antibacterial activity against Escherichia coli ATCC 25922 incubated for 18 hrs in presence of 100 mM NaCl by visual inspection method; type: functional
[45] = tested on: Escherichia coli; assay: Antibacterial activity against ESBL Escherichia coli 2 incubated for 18 hrs by visual inspection method; type: functional
[46] = tested on: Escherichia coli; assay: Antibacterial activity against ESBL Escherichia coli 5 incubated for 18 hrs by visual inspection method; type: functional
[47] = tested on: Erythrocyte; assay: Hemolytic activity in rat erythrocytes at 500 to 1000 ug/ml incubated for 1 hr; type: toxicity, cell-based; settings: dose 500-1000 µg/ml

CC[C@H](C)[C@H](NC(=O)[C@H](Cc1ccccc1)NC(=O)[C@@H](N)Cc1c[nH]c2ccccc12)C(=O)N[C@H](C(=O)N[C@@H](Cc1c[nH]c2ccccc12)C(=O)N[C@@H](Cc1c[nH]cn1)C(=O)N[C@@H](Cc1c[nH]c2ccccc12)C(=O)N[C@@H](CCCNC(=N)N)C(=O)N[C@@H](CCCCN)C(=O)N[C@H](C(=O)N1CCC[C@H]1C(=O)N1CCC[C@H]1C(=O)N[C@@H](CCCCN)C(N)=O)[C@@H](C)CC)[C@@H](C)CC (H-WFIIWHWRKIPPK-NH2)
MIC [1]: 15 µg/mL (≈ 8.3 µM) | Activity [2]: Tde | MIC [3]: 7.5 µg/mL (≈ 4.15 µM) | Activity [4]: Active | inhibition (INH) [5]: 20.76% | Activity [6]: Active | MIC [7]: 7.5 µg/mL (≈ 4.15 µM) | MIC [8]: 3.75 µg/mL (≈ 2.08 µM) | MIC [9]: 3.75 µg/mL (≈ 2.08 µM) | MIC [10]: 7.5 µg/mL (≈ 4.15 µM) | Activity [11]: Non-Toxic | HC5 [12]: 416.15 µg/mL | MIC [13]: 7.5 µg/mL | MIC [14]: 15 µg/mL (≈ 8.3 µM) | Activity [15]: Active | Activity [16]: Toxic | Activity [17]: Active | Activity [18]: Non-Toxic | MIC [19]: 7.5 µg/mL | Activity [20]: Non-Toxic | Activity [21]: Active | MIC [22]: 7.5 µg/mL | MIC [23]: 15 µg/mL | Activity [24]: Active | MIC [25]: 7.5 µg/mL (≈ 4.15 µM) | Activity [26]: Active | Activity [27]: Active | MIC [28]: 15 µg/mL (≈ 8.3 µM) | MIC [29]: 15 µg/mL | MIC [30]: 15 µg/mL (≈ 8.3 µM) | inhibition (INH) [31]: 12.29% | remaining at 2 h, 62.5 ug/ml [32]: 41.2% | Activity [33]: Active | Activity [34]: Active | MIC [35]: 7.5 µg/mL (≈ 4.15 µM) | inhibition (INH) [36]: >90% | Activity [37]: 100% | MIC [38]: 7.5 µg/mL (≈ 4.15 µM) | Activity [39]: Dose-Dependent Effect | MIC [40]: 7.5 µg/mL (≈ 4.15 µM) | Activity [41]: 100% | Activity [42]: Dose-Dependent Effect | inhibition (INH) [43]: 32.46% | MIC [44]: 15 µg/mL | MIC [45]: 15 µg/mL (≈ 8.3 µM) | MIC [46]: 15 µg/mL (≈ 8.3 µM) | Activity [47]: Toxic
